Reference: patent US20250152591A1, “TREATMENT OF HEMATOLOGICAL MALIGNANCIES WITH MENIN INHIBITORS AND P-GLYCOPROTEIN INHIBITORS” (Kura Oncology, Inc., priority 2022, published 2025)
Read-outs that look alike come from different tables or passages of the source.

Experiments:
[1] = molecular target: P-gp (Homo sapiens, UniProt P08183); experiment: in vitro; details: MDCK-MDR1, pH 7.4
Description: MDCK epithelial cells stably transfected with the human MDR1 gene (the gene encoding for the efflux protein P-gp) were seeded on a Multiscreen™ plate (Millipore, MA, USA) and formed a confluent monolayer over 4 days prior to the experiment. To verify the MDR1-MDCK cell monolayers were properly formed, aliquots of the cell buffers were analyzed by fluorescence to determine the transport of the impermeable dye Lucifer Yellow. Any deviations from control values are reported.
MDR1-MDCK cells were incubated with these buffers for 2 h, and the receiver side buffer was removed for analysis by LC-MS/MS.
The rate of passage of the test compounds through this cell monolayer barrier from apical to basolateral (A→B) in this bi-directional transport assay was used to determine the apparent permeability coefficient (Papp). Receiver, donor, and dosing solution concentrations were quantified using a calibration curve prepared in transport buffer solution (pH 7.4). Papp is calculated as
where dQ/dt is rate of permeation, C0 is initial concentration of test agent, and A is the area of monolayer (0.11 cm^2). The basolateral to apical (B→A) to apical to basolateral (A→B) apparent permeability coefficient ratio
When RE>2 for a tested compound, the tested compound is a potential substrate for P-gp.
Rantinidine, talinolol, warfarin, and loperamide (±2 μM elacridar) were tested as reference compounds and each was tested at a concentration of 10 μM.

[2] = tested on: MOLM13-PGP cell line; experiment: Cell viability assay, MOLM13-PGP; type: cell-based; parameters: unit of the concentration uncertain; details: 168 h, 7 days
Description: (§1) The effects described above were investigated in an AML cell line, MOLM-13, which carries a KA4T2A (MLL)-rearrangement mutation. The P-gp expressing MOLM-13 cell line (MOLM13-PGP) and the Luciferase expressing MOLM-13 cell line (MOLM13-Control) were established by lentivirally transducing P-gp ORF or Luciferase ORF. Cells were plated and treated with test compound for 7 days.

[3] = tested on: MOLM13-Control cell line; experiment: Cell viability assay, MOLM13-Control; type: cell-based; parameters: unit of the concentration uncertain; details: 168 h, 7 days
Description: as §1

[4] = tested on: MV4;11-Control cell line; experiment: CellTiter-Glo cell viability assay, MV4;11-Control; type: cell-based; parameters: unit of the concentration uncertain
Description: The influence of efflux pumps on the antitumor activity of the test compounds at steady state (more clinically relevant) were evaluated using P-gp-transfected AML cells (MV4;11 cells) in 6-day viability assays.
A P-gp-expressing KMT2A(MLL)-rearranged cell line model was developed by lentiviral transduction of the MV4;11 parental cell line and then selection for either Luciferase ORF (MV4;11-Control) or P-gp ORF (MV4;11-PGP).
[…] Cell viability was measured by CellTiter-Glo® Luminescent Cell Viability Assay (CTG assay, Promega Corp.) and % Viability was quantified by normalizing to the luminescence values of DMSO-only treated cells. The dose-response curves and IC50's were calculated using GraphPad Prism 9.4.1.
The measured luminescence in the live cells of the MV4;11-Control and MV4;11-PGP cells that were treated with Compound I only (+DMSO), Compound I+posaconazole […], and valspodar (1 mM) are shown in FIGS. 5A and 5B.
In a second set of experiments, MV4;11-Control and MV4;11-PGP cell lines were treated as described above with five menin inhibitors, including Compound I, SNDX-5613, Compound A, Compound B, and Compound C, at concentrations ranging from 0 to 1000 nM. All tested compounds dropped in potency due to the P-gp expression as shown in FIGS. 6A-6J and in Tables 5 and 6 (indicated by increased IC50 values between “MV4;11-Control (Compound+DMSO)” and “MV4;11-PGP (Compound+DMSO)” entries).

P-gp, sequence (P08183 whole entry): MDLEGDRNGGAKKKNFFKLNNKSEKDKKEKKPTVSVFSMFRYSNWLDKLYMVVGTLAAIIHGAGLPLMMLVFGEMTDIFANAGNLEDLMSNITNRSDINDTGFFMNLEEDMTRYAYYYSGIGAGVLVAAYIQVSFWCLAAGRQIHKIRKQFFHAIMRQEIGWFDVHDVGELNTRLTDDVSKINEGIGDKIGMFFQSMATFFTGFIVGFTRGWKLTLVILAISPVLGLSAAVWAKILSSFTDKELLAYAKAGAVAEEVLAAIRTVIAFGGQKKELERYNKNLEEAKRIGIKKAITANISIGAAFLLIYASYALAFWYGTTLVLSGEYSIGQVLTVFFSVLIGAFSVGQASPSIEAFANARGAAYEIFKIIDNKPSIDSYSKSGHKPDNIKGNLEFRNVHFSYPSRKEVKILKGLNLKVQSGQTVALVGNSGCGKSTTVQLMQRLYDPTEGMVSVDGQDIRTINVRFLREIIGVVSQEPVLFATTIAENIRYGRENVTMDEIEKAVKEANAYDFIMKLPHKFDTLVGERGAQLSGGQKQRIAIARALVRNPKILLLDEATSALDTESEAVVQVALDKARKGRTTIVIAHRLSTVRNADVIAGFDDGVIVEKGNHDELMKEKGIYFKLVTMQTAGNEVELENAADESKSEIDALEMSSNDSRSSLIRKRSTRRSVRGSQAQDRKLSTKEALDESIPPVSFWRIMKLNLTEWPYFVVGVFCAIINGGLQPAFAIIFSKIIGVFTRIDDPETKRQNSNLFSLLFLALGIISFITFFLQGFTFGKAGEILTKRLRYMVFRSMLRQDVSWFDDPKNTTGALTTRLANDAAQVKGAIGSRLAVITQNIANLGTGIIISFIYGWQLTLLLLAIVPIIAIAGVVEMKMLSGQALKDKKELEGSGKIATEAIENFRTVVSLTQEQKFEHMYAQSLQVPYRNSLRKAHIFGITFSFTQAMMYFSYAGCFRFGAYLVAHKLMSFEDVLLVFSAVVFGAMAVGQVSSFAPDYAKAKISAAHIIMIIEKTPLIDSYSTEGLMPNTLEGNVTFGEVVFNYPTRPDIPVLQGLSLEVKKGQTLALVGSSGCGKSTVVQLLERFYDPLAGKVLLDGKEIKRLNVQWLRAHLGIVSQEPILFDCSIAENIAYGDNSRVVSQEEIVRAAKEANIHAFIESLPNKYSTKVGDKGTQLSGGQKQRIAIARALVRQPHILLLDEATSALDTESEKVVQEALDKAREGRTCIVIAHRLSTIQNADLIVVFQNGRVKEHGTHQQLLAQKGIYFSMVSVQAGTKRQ

With `CNc1nc(NC2CCN(Cc3ccc4c(cc(C#N)n4C[C@H](C)N4CCN(S(C)(=O)=O)CC4)c3C)CC2)c2cc(CC(F)(F)F)sc2n1` [Compound I] the Papp A→B at 2 h [1] was 0.308 ×10⁻⁶ cm/s, the Papp B→A at 2 h [1] was 1.84 ×10⁻⁶ cm/s and the IC50 ([2]; Table 7, read-out: IC50 MOLM13-PGP (Compound + DMSO)) was 65.7 nM. The IC50 ([2]; Table 8, read-out: IC50 MOLM13-PGP (Compound + DMSO)) was 63.2 nM, the IC50 ([2]; posaconazole (1.5 (unit uncertain)), Table 7, read-out: IC50 MOLM13-PGP (Compound + posaconazole)) was 19.2 nM and the IC50 ([2]; valspodar (1 (unit uncertain)), Table 8, read-out: IC50 MOLM13-PGP (Compound + valspodar)) was 23 nM. It also gave an IC50 ([3]; Table 7, read-out: IC50 MOLM13-Control (Compound + DMSO)) of 23.7 nM, an IC50 ([3]; Table 8, read-out: IC50 MOLM13-Control (compound + DMSO)) of 27 nM and an IC50 ([3]; posaconazole (1.5 (unit uncertain)), Table 7, read-out: IC50 MOLM13-Control (Compound + posaconazole)) of 16.5 nM. The IC50 ([3]; valspodar (1 (unit uncertain)), Table 8, read-out: IC50 MOLM13-Control (Compound + valspodar)) was 22.3 nM, the IC50 ([4]; 120 h, MV4;11-Control, 5 days, Table 4, read-out: IC50 (Compound I + DMSO)) was 7.2 nM and the IC50 ([4]; 120 h, MV4;11-Control, posaconazole (1.5 μM), 5 days, Table 4, read-out: IC50 (Compound I + Posaconazole)) was 3.8 nM. It also gave an IC50 ([4]; 120 h, MV4;11-Control, valspodar (1 μM), 5 days, Table 4, read-out: IC50 (Compound I + Valspodar)) of 6.1 nM, an IC50 ([4]; 144 h, Compound I only, 0 to 1000 nM, 6 days, Table 3, read-out: IC50 MV4;11-Control) of 7.6 nM and an IC50 ([4]; 144 h, second set of experiments, 0 to 1000 nM, Table 5, read-out: IC50 MV4;11-Control (Compound + DMSO)) of 6.05 nM. For the same molecule, the IC50 ([4]; 144 h, second set of experiments, 0 to 1000 nM, Table 6, read-out: IC50 MV4;11-Control (Compound + DMSO)) was 6.14 nM, the IC50 ([4]; second set of experiments, posaconazole (1.5 (unit uncertain)), Table 5, read-out: IC50 MV4;11-Control (Compound + posaconazole)) was 3.76 nM and the IC50 ([4]; second set of experiments, valspodar (1 (unit uncertain)), Table 6, read-out: IC50 MV4;11-Control (Compound + valspodar)) was 4.84 nM.
